Measured values taken from patent US8309685B2 (Celgene Avilomics Research, Inc., priority 2007, dated 2012).

Key:
[1] = test system: HCV RNA replicon in cell line ET (luc-ubi-neo/ET), human Huh7 hepatoma; experiment: Method A: HCV RNA replicon antiviral assay (luciferase, ET cell line); type: cell-based, Hepatitis C virus; details: Hepatitis C virus, Huh-7, assay described in Example 22
In short: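 ET replicon cells (Huh7 carrying luciferase-reporter HCV replicon) plated at 5×10^3 cells/well and exposed 72 hr to six 3-fold drug concentrations in DMEM/5% FBS. Replicon luciferase gave EC50/EC90; CytoTox-1 cell counts gave IC50 (viability); […]. Interferon alpha-2b served as positive control.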

[2] = molecular target: T1, wild type HCV NS3/4A 1b protease enzyme (Hepatitis C virus genotype 1b, UniProt P26663); experiment: HCV Protease FRET Assay (IC50_APP), wild type; type: biochemical
T1 construct: 10× stocks of NS3/4A protease enzyme from Bioenza (Mountain View, Calif.); purchased Bioenza (Mountain View, Calif.)

[3] = molecular target: T2, A156T mutant of the HCV NS3/4A 1b protease enzyme (Hepatitis C virus genotype 1b, UniProt P26663, A1182T); experiment: HCV Protease FRET Assay (IC50_APP), A156T mutant; type: biochemical; details: apparent IC50, A156T mutant; read-out: IC50_APP, HCV A156T
T2 construct: 10× stocks of NS3/4A protease enzyme from Bioenza (Mountain View, Calif.); purchased Bioenza (Mountain View, Calif.)

[4] = molecular target: T3, D168A mutant of the HCV NS3/4A 1b protease enzyme (Hepatitis C virus genotype 1b, UniProt P26663, D1194A); experiment: HCV Protease FRET Assay (IC50_APP), D168A mutant; type: biochemical; details: apparent IC50, D168A mutant; read-out: IC50_APP, HCV D168A
T3 construct: 10× stocks of NS3/4A protease enzyme from Bioenza (Mountain View, Calif.); purchased Bioenza (Mountain View, Calif.)

[5] = molecular target: T4, NS3 protease self-cleavage in Huh-7-Luc-Neo-ET wild-type replicon cells (Hepatitis C virus genotype 1b, UniProt Q9WMX2, E1202G/T1280I); experiment: Inhibition of protease self cleavage after compound removal, wild-type replicon cells; type: cell-based
T4 construct: host or cells: Huh-7-Luc-Neo-ET (human Huh7 hepatoma cells carrying the replicon)
Protocol: Inhibition of Protease Self Cleavage
Huh-7-Luc-Neo-ET cells were plated in Replicon Assay Medium (RPMI supplemented with 5% FBS, 1× non-essential amino acids and pen/strep) at a density of 1×10^5 cells/well in 12 well plates. Eight hours later the media was removed and replaced with 1 ml media containing test compound (5 wells per compound) and 0.02% DMSO and the cells were returned to the incubator overnight. Sixteen hours later 1 well from each compound and 1 untreated well were washed with PBS, then lysed and scraped into 30 ul of Cell Extraction Buffer (Biosource, Camarillo, Calif.) plus Complete Protease Inhibitor (Roche, Indianapolis, Ind.). The remaining wells were rinsed 2× with PBS then fed with Replicon Media and returned to the incubator. […]
(§1) Cell lysates were separated by SDS-Page (4-20%) and transferred to Immobilon-P PVDF membrane (Millipore Corporation, Mass.) and blotted with polyclonal anti NS3 antibody (Bioenza, Calif.). Blots were scanned on an Odyssey infrared scanner from Licor and the FL band and cleavage products were quantified separately using the Licor software provided with the scanner. The cleavage product was calculated as a percentage of the total NS3 in each sample and then normalized to the DMSO control so that the DMSO control reflects 100% activity.

[6] = molecular target: T5, NS3 protease with R155K mutation in modified replicon system (Hepatitis C virus genotype 1b, UniProt Q9WMX2, E1202G/R1181K/T1280I); experiment: Inhibition of protease self cleavage after compound removal, R155K replicon system; type: cell-based
T5 construct: modified replicon system where the NS3 protease contains a clinically observed mutation; expressed in transfected cells; host or cells: Huh7-Lunet cells transfected with in vitro transcribed replicon RNA
Protocol: Constructs containing clinically relevant mutations were generated by performing site-directed mutagenesis on the pFK-I389-luc-ubi-neo-NS3-3′ET plasmid (ReBLikon Gmbh (Heidelberg, Germany)). using the QuickChange II Site-Directed Mutagenesis Kit (Stratagene, La Jolla, Calif.) according to manufacturer's directions and with the primers described in Table 7, below.
Huh-7-Luc-Neo-ET cells were plated in Replicon Assay Medium (RPMI supplemented with 5% FBS, 1× non-essential amino acids and pen/strep) at a density of 1×10^5 cells/well in 12 well plates. Eight hours later the media was removed and replaced with 1 ml media containing test compound (5 wells per compound) and 0.02% DMSO and the cells were returned to the incubator overnight. […]
as §1, with “activity. […]” for “activity.”

[7] = molecular target: T6, C159S mutant of the HCV NS3/4A 1b protease enzyme (Hepatitis C virus genotype 1b, UniProt P26663, C1185S); experiment: HCV Protease FRET Assay (IC50_APP), C159S mutant; type: biochemical; details: apparent IC50, C159S mutant
T6 construct: 10× stocks of NS3/4A protease enzyme from Bioenza (Mountain View, Calif.); purchased Bioenza (Mountain View, Calif.)
Protocol: HCV Protease FRET Assay for WT and Mutated NS3/4A 1b Enzymes (IC50—APP).
The following protocol was used to generate “apparent” IC50 (IC50—APP) values as depicted in Table 6, below. […] 5 μL of each enzyme were added to Corning (#3575) 384-well, black, microtiter plates (Corning, N.Y.) after spotting a 0.5 μL volume of 50% DMSO and serially diluted compounds prepared in 50% DMSO. Protease reactions were immediately started after enzyme addition with the addition of 45 μL of the FRET substrate and monitored for 60-90 minutes at λex485/λem520 in a Synergy^4 plate reader from BioTek (Winooski, Vt.). At the conclusion of each assay, progress curves from each well were examined for linear reaction kinetics and fit statistics (R^2, 95% confidence intervals, absolute sum of squares).
The compound numbers correspond to the compound numbers in Table 3. […] ;

[8] = molecular target: T7, R155K mutant of the HCV NS3/4A 1b protease enzyme (Hepatitis C virus genotype 1b, UniProt P26663, R1181K); experiment: HCV Protease FRET Assay (IC50_APP), R155K mutant; type: biochemical; details: apparent IC50, R155K mutant; read-out: IC50_APP, HCV R155K
T7 construct: 10× stocks of NS3/4A protease enzyme from Bioenza (Mountain View, Calif.); purchased Bioenza (Mountain View, Calif.)

[9] = molecular target: T8, HCV NS3/4A wild type (genotype 1b) (Hepatitis C virus genotype 1b, UniProt P26663); experiment: Mass spectrometric analysis (MALDI-TOF) of covalent modification, HCV wild type; type: binding; details: 10-fold excess of compound to protein, 3 hrs
T8 construct: mass spectroscopic analysis of HCV NS3/4A wild-type protease domain; purchased Bioenza Calif
Protocol: Mass spectrometric analysis of HCV wild type or HCV variant C159S in the presence of test compound was performed. 100 pmols of HCV wild type (Bioenza Calif.) was incubated with compound for 1 hr and 3 hrs at 10-fold access of […] to protein. 1 ul aliquots of the samples (total volume of 4.24 ul) were diluted with 10 ul of 0.1% TFA prior to micro C4 ZipTipping directly onto the MALDI target using Sinapinic acid as the desorption matrix (10 mg/ml in 01% TFA:Acetonitrile 50:50). Analyses were performed on a Shimadzu Biotech Axima TOF^2 (Shimadzu Instruments) matrix-assisted-laser desorption/ionization Time-of-Flight (MALDI-TOF) mass spectrometer. The same procedure was carried out on 100 pmols of HCV C159S mutant of HCV protease for 3 hrs at 10-fold excess of (I-3) to protein.
As depicted in FIGS. 2, 3, 4, and 5, mass spectrometric analysis of HCV wild type or HCV mutants in the presence of test compound (I-3) was performed. […] 1 ul aliquots of the samples were diluted with 10 ul of 0.1% TFA prior to micro C4 ZipTipping directly onto the MALDI target using Sinapinic acid as the desorption matrix (10 mg/ml in 0.1% TFA:Acetonitrile 50:50).
(§2) Mass spectrometric analysis of HCV wild type (genotype 1b) in the presence of test compounds I-73 and I-75 was performed using the following protocol: HCV NS3/4A wild type (wt) was incubated for 1 hr at a 10× fold access of test compound to protein. 2 ul aliquots of the samples were diluted with 10 ul of 0.1% TFA prior to micro C4 ZipTipping directly onto the MALDI target using Sinapinic acid as the desorption matrix (10 mg/ml in 0.1% TFA:Acetonitrile 50:50). For intact protein mass measurement the instrument was set in Linear mode using a pulsed extraction setting of 24,500 and apomyoglobin as the standard to calibrate the instrument.
Mass spectrometric analysis of HCV NS3/4A genotypes 1a, 1b, 2a, and 3a in the presence of test compound I-96 was performed using the following protocol: HCV NS3/4A was incubated for 3 hr at a 10× fold access of test compound to protein. […]

[10] = molecular target: T9, HCV NS3/4A genotype 1a (Hepatitis C virus genotype 1a, UniProt P27958); experiment: Mass spectrometric analysis of covalent modification, genotype 1a; type: binding; details: 10× excess of compound, 3 hr
T9 construct: Mass spectrometric analysis of HCV NS3/4A genotypes 1a, 1b, 2a, and 3a
Protocol: as §2, with “HCV NS3/4A genotypes 1a, 1b, 2a, and 3a” for “HCV wild type (genotype 1b)”, “test compound I-96” for “test compounds I-73 and I-75”, “NS3/4A” for “NS3/4A wild type (wt)”, “for 3” for “for 1”, “in 01%” for “in 0.1%”

[11] = molecular target: T10, HCV NS3/4A genotype 2a (Hepatitis C virus genotype 2a, UniProt P26660); experiment: Mass spectrometric analysis of covalent modification, genotype 2a; type: binding; details: 10× excess of compound, 3 hr
T10 construct: Mass spectrometric analysis of HCV NS3/4A genotypes 1a, 1b, 2a, and 3a
Protocol: as §2, with “HCV NS3/4A genotypes 1a, 1b, 2a, and 3a” for “HCV wild type (genotype 1b)”, “test compound I-96” for “test compounds I-73 and I-75”, “NS3/4A” for “NS3/4A wild type (wt)”, “for 3” for “for 1”, “in 01%” for “in 0.1%”

[12] = molecular target: T11, HCV NS3/4A genotype 3a (Hepatitis C virus genotype 3a, UniProt Q81258); experiment: Mass spectrometric analysis of covalent modification, genotype 3a; type: binding; details: 10× excess of compound, 3 hr
T11 construct: Mass spectrometric analysis of HCV NS3/4A genotypes 1a, 1b, 2a, and 3a
Protocol: as §2, with “HCV NS3/4A genotypes 1a, 1b, 2a, and 3a” for “HCV wild type (genotype 1b)”, “test compound I-96” for “test compounds I-73 and I-75”, “NS3/4A” for “NS3/4A wild type (wt)”, “for 3” for “for 1”, “in 01%” for “in 0.1%”

[13] = test system: HCV RNA replicon in cell line ET (luc-ubi-neo/ET), human Huh7 hepatoma; experiment: Luciferase Assay (Example 35), replicon-derived luciferase activity; type: cell-based; details: Hepatitis C virus, Huh-7, assay described in Example 35
In short: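 Huh7-derived ET cells carrying a luciferase-reporter HCV replicon, 5×10^3 cells/well, exposed 72 h to six 3-fold compound concentrations in DMEM with 5% FBS. Replicon luciferase gives EC50/EC90; Cell Titer Blue cell number gives cytotoxic IC50, with SI50 as their ratio. Interferon alpha-2b served as positive control.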

[14] = molecular target: HCV protease mutant A156T (Hepatitis C virus genotype 1b, UniProt Q9WMX2, A1182T); details: biochemical assays, read-out: Comparative Ki Values, A156T; cited from earlier work
[15] = molecular target: HCV protease mutant D168A (Hepatitis C virus genotype 1b, UniProt Q9WMX2, D1194A); details: biochemical assays, cited from earlier work

SMILES	IC90 ([1]; IC90) [nM]	IC50 ([1]; read-out: Replicon (IC50)) [nM]	IC50 [2] [nM]	IC50 [3] [nM]	IC50 [4] [nM]	Inhibition of NS3 protease activity (self-cleavage) after compound removal ([5]; up to 24 hours after compound removal)	Duration of inhibition of mutant protease activity after compound removal [6]	IC50 [7] [nM]	IC50 [8] [nM]	Covalent modification of HCV wild type by mass spectrometry [9]	Covalent modification of HCV NS3/4A genotype 1a by mass spectrometry [10]	Covalent modification of HCV NS3/4A genotype 2a by mass spectrometry [11]	Covalent modification of HCV NS3/4A genotype 3a by mass spectrometry [12]	EC90 ([13]; EC90) [nM]	EC50 [13] [nM]	Return of NS3 self-cleavage activity after drug removal ([5]; 16 hours incubation, in as little as 4 hours after removal)	Ki [14] [nM]	IC50 ([15]; literature, read-out: Comparative IC50 Values, D168A) [nM]	Ki ([15]; read-out: Comparative Ki Values, D168A) [nM]
C=CC(=O)N[C@H](C)C(=O)N1C[C@H](Oc2cc(-c3ccccc3)nc3cc(OC)ccc23)C[C@H]1C(=O)N[C@]1(C(=O)NS(=O)(=O)C2CC2)C[C@H]1C=C [Compound I-54, (2S,4R)-1-((R)-2-acrylamidopropanoyl)-N-((1R,2S)-1-(cyclopropylsulfonylcarbamoyl)-2-vinylcyclopropyl)-4-(7-methoxy-2-phenylquinolin-4-yloxy)pyrrolidine-2-carboxamide]	< 10	< 10	< 10	10 to 100	10 to 100	virtually complete inhibition	at least 24 hours												
C=C[C@@H]1C[C@]1(NC(=O)[C@@H]1C[C@@H](Oc2nccc3cc(OC)ccc23)CN1C(=O)[C@H](CCC(=O)C=C(C)C)NC(=O)OC(C)(C)C)C(=O)NS(=O)(=O)C1CC1 [Compound I-96, {1-[2-(1-Cyclopropanesulfonylaminocarbonyl-2-vinyl-cyclopropylcarbamoyl)-4-(6-methoxy-isoquinolin-1-yloxy)-pyrrolidine-1-carbonyl]-6-methyl-4-oxo-hept-5-enyl}-carbamic acid tert-butyl ester]			< 10	10 to 100	100 to 1000			< 10	10 to 100	measurable covalent modification	measurable covalent modification	measurable covalent modification	measurable covalent modification	10 to 100	< 10				
CCC[C@H](NC(=O)[C@@H]1[C@H]2CCC[C@H]2CN1C(=O)[C@@H](NC(=O)[C@@H](NC(=O)c1cnccn1)C1CCCCC1)C(C)(C)C)C(=O)C(=O)NC1CC1 [VX-950]																virtually complete return of activity	9900	193	150
